Source: patent publication US12331093B2, “Fusion polypeptides for metabolic disorders” (BEIJING QL BIOPHARMACEUTICAL CO., LTD., priority 2021, dated 2025)

Tests used:
[1] = Food intake and body weight reduction in DIO mice; type: in vivo, C57BL/6 mice; settings: 10 nmol/kg QD
Protocol: 22 week old DIO male C57BL/6 mice (˜50 g) were injected once every other day (Q2D) subcutaneously with designated GLP-1 polypeptide conjugates (i.e., Molecule 012) for 25 days. Food intake and body weight were measured twice a week and fasting blood glucose was measured once a week. Five animals were used for each treatment group. Body weight and fasting blood glucose was monitored for each individual animal, but food intake for each group animals was measured together. Day 1 and Day 25 are first day and last day of molecule dosage. Data are indicated as mean values and standard error (SEM) or pooled values. Statistical analysis was performed by One-way ANOVA. Body weight reduction on Day 25 is calculated by −1*(% BW loss−% BW loss of vehicle group); Cumulative food intake reduction is calculated by −100*(cumulative food intake−cumulative food intake of vehicle)/cumulative food intake of vehicle.

human beta-Klotho = molecular target: T1, human beta-Klotho (Homo sapiens, UniProt Q86Z14); experiment: In vitro FGF21 activity, p-ERK levels in HEK293 cell line overexpressing human beta-Klotho; type: cell-based; settings: compared with YH-dual
T1 construct: expressed in transfected cells; host or cells: HEK293 cell line
Protocol: The in vitro FGF21 activities of the fusion protein were assessed using a HEK293 cell line overexpressing human beta-Klotho. Tested fusion protein conjugates were measured at 400 nM top concentration with 4-fold serial dilutions in the presence of 1% HSA. After cells were treated with fusion protein conjugates for 12 mins, p-ERK levels were measured by p-ERK kit (Cisbio, 64ERKPEH).
The activity of each fusion protein was represented by EC50, derived from non-linear regression analysis.

[2] = Metabolic parameters in DIO animal model, 21 days; type: in vivo, C57BL/6 mice; settings: DIO mice, QD subcutaneously, FIG. 4B
Protocol: 16 week old DIO male C57BL/6 mice (35˜40 g) were injected once daily (QD) subcutaneously with designated GLP-1/FGF21 conjugates (i.e., MLC #9, MLC #14, MLC #16 and MLC #17) for 21 days. Food intake and body weight were measured once everyday and non-fasting blood glucose was measured once every three days. Five animals were used for each treatment group. Body weight and blood glucose was monitored for each individual animal, but food intake for each group of animals was measured together. Day 1 and Day 21 are first day and last day respectively of the treatment. Terminal blood was collected and EDTA-K3 plasma was prepared and frozen at −80° C. for biomarker measurement (LDL-C, TC, TG, ALT, insulin, adiponectin). Liver and adipose tissue were also collected and frozen in liquid nitrogen and store at −80° C. Data are indicated as mean values and standard error (SEM) or pooled values. Statistical analysis was performed by One-way ANOVA. Body weight reduction on Day 21 is calculated by −1*(% BW loss−% BW loss of vehicle group); Cumulative food intake reduction is calculated by −100*(cumulative food intake−cumulative food intake of vehicle)/cumulative food intake of vehicle.

In the case of “Control#2: GLP1(del7-8, 22E, 36G)-(GAQP)5-ALB8-(GAQP)10-FGF21 (121Q, 168L, 171G, 180E), SEQ ID NO: 72, GLP1 dead [reference compound]”, the “Body weight reduction (% reduction compared to vehicle) (Day 11)” value [1] is reported as 21.7% and the “Cumulative food intake reduction (% reduction compared to vehicle) (Day 11)” value [1] is reported as 19.1%.
With “Control#6: GLP1(del7-8, 22E, 36G)-(GAQP)5-ALB8-(GAQP)-FGF21 (121Q, 168L, 171G, 180E), SEQ ID NO: 78, GLP1 dead [reference compound]” the “FGF21 efficacy (FIGS. 2A and 2B)” value (human beta-Klotho) was “significantly higher FGF21 efficacy than YH-dual”, the “Body weight reduction (% reduction compared to vehicle) (Day 11)” value [1] was 24.6% and the “Cumulative food intake reduction (% reduction compared to vehicle) (Day 11)” value [1] was 13.1%.
Semaglutide [reference compound] gave a non-fasting glucose level [2] of 7.5 to 10 mmol/L.
